The subject of experiment [1] is salivation (pilocarpine nitrate). Kind of experiment: Inhibition of pilocarpine-induced salivation in anesthetized dogs. Type of experiment: in vivo, mongrel dogs. Conditions: Canis lupus familiaris, iv, cumulative i.v. doses, pilocarpine-induced salivary flow, read-out: ID50 Salivation. As to the method:
(§1) In an additional testing procedure, mongrel dogs of either sex, 10.6 to 15.3 kg, are anesthetized with sodium pentobarbital, 30 mg/kg i.v. and then prepared for the monitoring of pulmonary mechanics. A Buxco pulmonary mechanics computer is used to calculate pulmonary resistance, dynamic compliance, and tidal volume from transpulmonary pressure and flow data. Respiratory rate, heart rate and mean arterial blood pressure are also monitored. The femoral vein is cannulated for the delivery of drugs. Pilocarpine nitrate (0.2 mg/kg/hr) is than infused to induce a bronchospasm and salivary flow. […] Salivary output is collected from a catheterized Wharton's duct at five minute intervals. After salivation has stabilized, 3 control collections are taken at 5 minute intervals followed by a series of cumulative i.v. doses of test compound (1, 3, 10, 30, 100, 300, 1000, 3000, and 10,000 μg/kg) that are injected every 5 minutes for 45 minutes. The percent inhibition of both the bronchospasm and salivation are calculated for each dose with a return to pre-pilocarpine resistance levels or cessation of salivation equal to a 100% inhibition.

The subject of experiment [2] is bronchospasm (pilocarpine nitrate). Nature of the experiment: Inhibition of pilocarpine-induced bronchospasm in anesthetized dogs (pulmonary mechanics). Conditions: for ED50: Canis lupus familiaris, iv, anesthetized dogs, cumulative i.v. doses, pilocarpine-induced bronchospasm, read-out: ID50 Bronchospasm; for Pulmonary Selectivity*: dogs, i.v., >1 indicates more potent as a bronchodilator than as an antisecretory agent. Type of experiment: in vivo, mongrel dogs. As to the method:
as §1

In experiment [3] the test system is collapse on exposure to an aerosol of methacholine. Nature of the experiment: Anticholinergic test: prolongation of collapse time in conscious guinea pigs exposed to an aerosol of methacholine. The format is in vivo. Conditions: guinea pig, 25 mg/kg intraperitoneally; 10 minutes methacholine aerosol; Control 1.9 to 2.0. The protocol: The compounds of the invention display anticholinergic properties when tested by the following procedure: Conscious guinea pigs, six at a time, are put into a sealed chamber and exposed for 10 minutes to an aerosol of methacholine. Untreated animals or those treated with vehicle will collapse in 1.9±0.1 minutes. Groups of animals are injected intraperitoneally with 25 mg/kg of test compound and exposed in the chamber under the same conditions. Compounds which prolong the collapse time past that of the control animals are considered active.

Consider `CC(CN1CCc2c(c(=O)oc3ccccc23)C1)N(C)C` (stereo not drawn) [H H H Me Me, 3-[2-(Dimethylamino)propyl]-1,2,3,4-tetrahydro-5H-[1]benzopyrano[3,4-c]pyridin-5-one], for which the ED50 in experiment [1] is 4.15 mg/kg. In experiment [2], the ED50 came to 0.192 mg/kg and the “Pulmonary Selectivity*” value is reported as 22. The “(Minutes Protection)” value in experiment [3] was found to be 10.0 min.

Take `CCN(CC)C(C)CN1CCc2c(c(=O)oc3cc(OC)c(OC)cc23)C1.Cl.Cl` (stereo not drawn) [MeO MeO H Et Et, 3-[2-(Diethylamino)propyl]-1,2,3,4-tetrahydro-8,9-dimethoxy-5H-[1]benzopyrano[3,4-c]pyridin-5-one dihydrochloride]: in experiment [1], the ED50 stood at 0.257 mg/kg. In addition, in experiment [2], the ED50 was 0.073 mg/kg and the “Pulmonary Selectivity*” value is recorded as 3.5. Further, the “(Minutes Protection)” value in experiment [3] came to 7.8 min.

Take `CCN(CC)C(C)CN1CCc2c(c(=O)oc3cc(C)ccc23)C1` (stereo not drawn) [H Me H Et Et, 3-[2-(Diethylamino)propyl]-1,2,3,4-tetrahydro-8-methyl-5H-[1]benzopyrano[3,4-c]pyridin-5-one]: the ED50 in experiment [1] was 0.51 mg/kg. In experiment [2], the ED50 stood at 0.111 mg/kg and the “Pulmonary Selectivity*” value is 4.6. For the same compound, the “(Minutes Protection)” value in experiment [3] worked out at 6.6 min.

Turning to `CCN(CC)C(C)CN1CCc2c(c(=O)oc3ccccc23)C1` (stereo not drawn) [H H H Et Et, 3-[2-(Diethylamino)propyl]-1,2,3,4-tetrahydro-5H-[1]benzopyrano[3,4-c]pyridin-5-one], the figures for the ED50 in experiment [1] and in experiment [2] were 2.31 mg/kg and 0.336 mg/kg, respectively. Besides, the “Pulmonary Selectivity*” value in experiment [2] is recorded as 7. For the same compound, the “(Minutes Protection)” value in experiment [3] came out at 10.0 min.

Turning to `CCNC(C)CN1CCc2c(c(=O)oc3ccccc23)C1` (stereo not drawn) [H H H Et H, 3-[2-(Ethylamino)propyl]-1,2,3,4-tetrahydro-5H-[1]benzopyrano[3,4-c]pyridin-5-one], the values for the ED50 in experiment [1] and in experiment [2] were 1.23 mg/kg and 0.21 mg/kg, respectively. The “Pulmonary Selectivity*” value in experiment [2] was 6. Besides, the “(Minutes Protection)” value in experiment [3] turned out to be 10.0 min.

With `COc1cc2oc(=O)c3c(c2cc1OC)CCN(CC(C)N(C)C)C3.Cl.Cl` (stereo not drawn) [MeO MeO H Me Me, 3-[2-(Dimethylamino)propyl]-1,2,3,4-tetrahydro-8,9-dimethoxy-5H-[1]benzopyrano[3,4-c]pyridin-5-one dihydrochloride], the ED50 in experiment [1] stood at 0.441 mg/kg. Besides, in experiment [2], the ED50 was 0.098 mg/kg and the “Pulmonary Selectivity*” value was determined as 4.5. For the same compound, the “(Minutes Protection)” value in experiment [3] is 5.2 min.

Turning to `Cc1ccc2c3c(c(=O)oc2c1)CN(CC(C)N(C)C)CC3` (stereo not drawn) [H Me H Me Me, 3-[2-(Dimethylamino)propyl]-1,2,3,4-tetrahydro-8-methyl-5H-[1]-benzopyrano[3,4-c]pyridin-5-one], the ED50 in experiment [1] was 0.421 mg/kg. Also, in experiment [2], the ED50 is 0.114 mg/kg and the “Pulmonary Selectivity*” value stood at 3.7. Also, in experiment [3], the “(Minutes Protection)” value is 10.0 min.

Turning to `CCOc1cc2oc(=O)c3c(c2cc1OCC)CCN(CC(C)N(C)C)C3.Cl.Cl` (stereo not drawn) [EtO EtO H Me Me, 3-[2-(Dimethylamino)propyl]-1,2,3,4-tetrahydro-8,9-diethoxy-5H-[1]benzopyrano[3,4-c]pyridin-5-one dihydrochloride], the ED50 in experiment [1] came to 0.303 mg/kg; in experiment [2] it was 0.147 mg/kg. Also, the “Pulmonary Selectivity*” value in experiment [2] stood at 2.1. Further, the “(Minutes Protection)” value in experiment [3] is 7.3 min.

Turning to `CCN(C)C(C)CN1CCc2c(c(=O)oc3cc(C)ccc23)C1` (stereo not drawn) [H Me H Me Et, 3-[2-(Ethylmethylamino)propyl]-1,2,3,4-tetrahydro-8-methyl-5H-[1]benzopyrano[3,4-c]pyridin-5-one], the ED50 in experiment [1] turned out to be 0.336 mg/kg; in experiment [2], 0.15 mg/kg. Also, the “Pulmonary Selectivity*” value in experiment [2] is listed as 2.2. The “(Minutes Protection)” value in experiment [3] was 8.8 min.
